Measured values as given in patent US20100168072A1, “Drug Combinations for the Treatment of Duchenne Muscular Dystrophy” (BIOMARIN IGA LIMITED, priority 2007, published 2010).

Test system: Utrophin A promoter linked to a luciferase reporter gene (H2K/mdx/Utro A reporter cell line)
Assay: Luciferase reporter assay (murine H2K cells)
Type: cell-based
Conditions: Mus musculus; final concentration of 10 μM; incubated for a further 48 hrs
Procedure: The cell line used for the screen is an immortalized mdx mouse H2K cell line that has been stably transfected with a plasmid containing ≈5 kb fragment of the Utrophin A promoter including the first untranslated […] linked to a luciferase reporter gene.
Under conditions of low temperature and interferon containing media, the cells remain as myoblasts. These are plated into 96 well plates and cultured in the presence of compound for three days. The level of luciferase is then determined by cell lysis and reading of the light output from the expressed luciferase gene utilising a plate luminometer.
The H2K/mdx/Utro A reporter cell line was passaged twice a week until ≦30% confluent. The cells were grown at 33° C. in the presence of 10% CO2
To remove the myoblasts for platting, they were incubated with Trypsin/EDTA until the monolayer started to detach.
• DMEM Gibco 41966 • 20% FCS • 1% Pen/Strep • 1% glutamine • 10 mls Chick embryo extract • Interferon(1276 905 Roche) Add fresh 10 μl/50 mls medium
The H2K/mdx/Utro A reporter cell line cells were plated out into 96 well plates (Falcon 353296, white opaque) at a density of approximately 5000 cells/well in 190 μl normal growth medium. The plates were then incubated at 33° C. in the presence of 10% CO2 for 24 hrs.
Compounds were dosed by adding 10 μl of diluted compound to each well giving a final concentration of 10 μM. The plates were then incubated for a further 48 hrs
Cells were then lysed in situ following the manufacture's protocols (Promega Steady-Glo Luciferase Assay System (E2520). Then counted for 10 seconds using a plate luminometer (Victor1420).

| SMILES | activity at 10 µM |
| --- | --- |
| Cc1cc2nn(-c3ccc(Cl)cc3)nc2cc1NC(=O)c1ccncc1 [Example 2, N-(2-(4-chlorophenyl)-6-methyl-2H-benzo[d][1,2,3]triazol-5-yl)isonicotinamide] | 201 to 300% |
| CCCC(=O)Nc1ccc2nn(-c3ccc(N(CC)CC)cc3)nc2c1 [Example 24, N-(2-(4-(diethylamino)phenyl)-2H-benzo[d][1,2,3]triazol-5-yl)butyramide] | < 200% |
| CCN(CC)c1ccc(-n2nc3cc(C)c(NC(=O)C(C)C)cc3n2)cc1 [Example 17, N-(2-(4-(diethylamino)phenyl)-6-methyl-2H-benzo[d][1,2,3]triazol-5-yl)isobutyramide] | < 200% |
| Cc1cc2nn(-c3ccc(Cl)cc3)nc2cc1NC(=O)c1ccco1 [Example 11, N-(2-(4-chlorophenyl)-6-methyl-2H-benzo[d][1,2,3]triazol-5-yl)furan-2-carboxamide] | 201 to 300% |
| CCN(CC)c1ccc(-n2nc3ccc(NC(=O)c4cccnc4)cc3n2)cc1 [Example 20, N-(2-(4-(diethylamino)phenyl)-2H-benzo[d][1,2,3]triazol-5-yl)nicotinamide] | 201 to 300% |
| CN(C)c1ccc(-n2nc3ccc(N)cc3n2)cc1 [Example 41, 2-(4-(dimethylamino)phenyl)-2H-benzo[d][1,2,3]triazol-5-amine] | 301 to 400% |
| CCS(=O)(=O)c1ccc2nn(-c3ccc(Cl)cc3)nc2c1 [Example 52, 2-(4′-chlorophenyl)-5-(ethylsulfonyl)-benzotriazole] | > 401% |
| CCN(CC)c1ccc(-n2nc3ccc(NC(=O)c4ccccc4)cc3n2)cc1 [Example 29, N-(2-(4-(diethylamino)phenyl)-2H-benzo[d][1,2,3]triazol-5-yl)benzamide] | < 200% |
| Cc1cc2nn(-c3ccc(Cl)cc3)nc2cc1NC(=O)c1cccnc1 [Example 1, N-(2-(4-chlorophenyl)-6-methyl-2H-benzo[d][1,2,3]triazol-5-yl)nicotinamide] | 301 to 400% |
| CS(=O)(=O)c1ccc2cn(-c3ccc(Cl)cc3)nc2c1 [Example 44, 2-(4-chlorophenyl)-6-(methylsulfonyl)-2H-indazole] | 201 to 300% |
| Cc1cc2nn(-c3ccc(N4CCOCC4)cc3)nc2cc1N [Example 34, 6-methyl-2-(4-morpholinophenyl)-2H-benzo[d][1,2,3]triazol-5-amine] | 201 to 300% |
| CCC(=O)Nc1cc2nn(-c3ccc(Cl)cc3)nc2cc1C [Example 7, N-(2-(4-chlorophenyl)-6-methyl-2H-benzo[d][1,2,3]triazol-5-yl)propionamide] | < 200% |
| Cc1ccc(-n2nc3ccc(N)cc3n2)cc1C [Example 63, 2-(3,4-dimethylphenyl)-2H-benzo[d][1,2,3]triazol-5-amine] | < 200% |
| CC(=O)Nc1ccc2nn(-c3ccc(F)cc3)nc2c1 [Example 69, N-(2-(4-fluorophenyl)-2H-benzo[d][1,2,3]triazol-5-yl)acetamide] | 201 to 300% |
| CCN(CC)c1ccc(-n2nc3ccc(NC(=O)c4ccc(N(C)C)cc4)cc3n2)cc1 [Example 33, N-(2-(4-(diethylamino)phenyl)-2H-benzo[d][1,2,3]triazol-5-yl)-4-(dimethylamino)benzamide] | < 200% |
| CCN(CC)c1ccc(-n2nc3ccc(N)cc3n2)cc1 [Example 19, 2-(4-(diethylamino)phenyl)-2H-benzo[d][1,2,3]triazol-5-amine] | 301 to 400% |
| CN1CCN(c2ccc(-n3nc4ccc(N)cc4n3)cc2)CC1 [Example 42, 2-(4-(4-methylpiperazin-1-yl)phenyl)-2H-benzo[d][1,2,3]triazol-5-amine] | < 200% |
| CCN(CC)c1ccc(-n2nc3ccc(NC(C)=O)cc3n2)cc1 [Example 22, N-(2-(4-(diethylamino)phenyl)-2H-benzo[d][1,2,3]triazol-5-yl)acetamide] | 201 to 300% |
| CCN(CC)c1ccc(-n2nc3ccc(NC(=O)c4ccco4)cc3n2)cc1 [Example 27, N-(2-(4-(diethylamino)phenyl)-2H-benzo[d][1,2,3]triazol-5-yl)furan-2-carboxamide] | < 200% |
| CCN(CC)c1ccc(-n2nc3ccc(NC(=O)c4ccc(OC)cc4)cc3n2)cc1 [Example 30, N-(2-(4-(diethylamino)phenyl)-2H-benzo[d][1,2,3]triazol-5-yl)-4-methoxybenzamide] | < 200% |
| CCCCC(=O)Nc1cc2nn(-c3ccc(Cl)cc3)nc2cc1C [Example 9, N-(2-(4-chlorophenyl)-6-methyl-2H-benzo[d][1,2,3]triazol-5-yl)pentanamide] | 201 to 300% |

| SMILES | activity at 10 µM |
| --- | --- |
| Cc1cc2nn(-c3ccc(Cl)cc3)nc2cc1NC(=O)c1cccs1 [Example 6, N-(2-(4-chlorophenyl)-6-methyl-2H-benzo[d][1,2,3]triazol-5-yl)thiophene-2-carboxamide] | 301 to 400% |
| CCN(CC)c1ccc(-n2nc3cc(C)c(NC(=O)c4cccnc4)cc3n2)cc1 [Example 12, N-(2-(4-(diethylamino)phenyl)-6-methyl-2H-benzo[d][1,2,3]triazol-5-yl)nicotinamide] | 301 to 400% |
| CCN(CC)c1ccc(-n2nc3ccc(NC(=O)c4cccs4)cc3n2)cc1 [Example 28, N-(2-(4-(diethylamino)phenyl)-2H-benzo[d][1,2,3]triazol-5-yl)thiophene-2-carboxamide] | < 200% |
| CCOc1ccc(-n2nc3cc(C)c(N)cc3n2)cc1 [Example 64, 2-(4-ethoxyphenyl)-6-methyl-2H-benzo[d][1,2,3]triazol-5-amine] | 201 to 300% |
| Cc1ccc(-n2nc3cc(C)c(N)cc3n2)cc1 [Example 65, 6-methyl-2-p-tolyl-2H-benzo[d][1,2,3]triazol-5-amine] | 201 to 300% |
| CCCC(=O)Nc1cc2nn(-c3ccc(Cl)cc3)nc2cc1C [Example 8, N-(2-(4-chlorophenyl)-6-methyl-2H-benzo[d][1,2,3]triazol-5-yl)butyramide] | 201 to 300% |
| CCCCC(=O)Nc1ccc2nn(-c3ccc(N(CC)CC)cc3)nc2c1 [Example 25, N-(2-(4-(diethylamino)phenyl)-2H-benzo[d][1,2,3]triazol-5-yl)pentanamide] | < 200% |
| CCc1ccc(-n2nc3ccc(N)cc3n2)cc1 [Example 68, 2-(4-ethylphenyl)-2H-benzo[d][1,2,3]triazol-5-amine] | 201 to 300% |
| CC(C)C(=O)Nc1ccc2cn(-c3ccc(Cl)cc3)nc2c1 [Example 46, N-(2-(4-chlorophenyl)-2H-indazol-6-yl)isobutyramide] | > 401% |
| COc1ccccc1C(=O)Nc1cc2nn(-c3ccc(Cl)cc3)nc2cc1C [Example 5, N-(2-(4-chlorophenyl)-6-methyl-2H-benzo[d][1,2,3]triazol-5-yl)-2-methoxybenzamide] | < 200% |
| CCC(=O)Nc1ccc2nn(-c3ccc(N(CC)CC)cc3)nc2c1 [Example 23, N-(2-(4-(diethylamino)phenyl)-2H-benzo[d][1,2,3]triazol-5-yl)propionamide] | < 200% |
| CS(=O)(=O)c1ccc2nn(-c3ccc4ccccc4c3)[n+]([O-])c2c1 [Example 54, 6-(Methylsulfonyl)-2-(naphthalen-2-yl)-2H-benzo[d][1,2,3]triazole 1-oxide] | 201 to 300% |
| CCN(CC)c1ccc(-n2nc3ccc(NC(=O)c4ccccc4OC)cc3n2)cc1 [Example 31, N-(2-(4-(diethylamino)phenyl)-2H-benzo[d][1,2,3]triazol-5-yl)-2-methoxybenzamide] | < 200% |
| CC(C)C(=O)Nc1ccc2nn(-c3ccc(Cl)c(Cl)c3)nc2c1 [Example 53, N-(2-(3,4-Dichlorophenyl)-2H-benzo[d][1,2,3]triazol-5-yl)isobutyramide] | > 401% |
| CS(=O)(=O)c1ccc2nn(-c3ccc(Cl)cc3)nc2c1 [Example 49, 2-(4-chlorophenyl)-5-(methylsulfonyl)-2H-benzo[d][1,2,3]triazole] | < 200% |
| CC(=O)Nc1cc2nn(-c3ccccc3)nc2cc1C [Example 67, N-(6-methyl-2-phenyl-2H-benzo[d][1,2,3]triazol-5-yl)acetamide] | 201 to 300% |
| CS(=O)(=O)c1ccc2nn(-c3ccc4ccccc4c3)nc2c1 [Example 55, 5-(Methylsulfonyl)-2-(naphthalen-2-yl)-2H-benzo[d][1,2,3]triazole] | > 401% |
| CC(C)C(=O)Nc1ccc2nn(-c3ccc(Cl)cc3)nc2c1 [Example 37, N-(2-(4-chlorophenyl)-2H-benzo[d][1,2,3]triazol-5-yl)isobutyramide] | > 401% |
| CC(C)S(=O)(=O)c1ccc2cn(-c3ccc(Cl)cc3)nc2c1 [Example 56, 2-(4′-Chlorophenyl)-6-(isopropylsulfonyl)-2H-indazole] | > 401% |
| Clc1ccc(-n2cc3ccccc3n2)cc1 [Example 48, 2-(4-chlorophenyl)-2H-indazole] | > 401% |
| COc1ccc(-n2nc3cc(C)c(NC(C)=O)cc3n2)cc1 [Example 66, N-(2-(4-methoxyphenyl)-6-methyl-2H-benzo[d][1,2,3]triazol-5-yl)acetamide] | < 200% |
